From ChEMBL document CHEMBL5463722, “Data for DCP probe BI-5524” (2023)
Activity calls are given as the source filed them. No cut-off for these calls is given here.

Experiments:
[1] = molecular target: Endothelin receptor type B (Homo sapiens) (UniProt P24530); assay: Activity against ETB/H in the Eurofins SafetyScreen44 (BI) by Radioactive Assay (Old_Cerep_20); details: Compound concentration 10.0 uM
[2] = molecular target: T1, Glutamate NMDA receptor (Rattus norvegicus) (UniProt P35439+Q00959+Q00960+Q00961+Q62645+Q8VHN2+Q9R1M7); assay: PCP Eurofins-Cerep binding assay; assay type: protein-complex assay; details: Compound concentration 10.0 uM
[3] = molecular target: Neurotensin receptor type 1 (Homo sapiens) (UniProt P30989); assay: Activity against NT1/H in the Eurofins SafetyScreen44 (BI) by Radioactive Assay (Old_Cerep_27); details: Compound concentration 10.0 uM
[4] = molecular target: Cannabinoid receptor 1 (Homo sapiens) (UniProt P21554); assay: Activity against CB1/CENTR/H in the Eurofins SafetyScreen44 (BI) by Radioactive Assay (Old_Cerep_12)
Cannabinoid receptor 1 (Homo sapiens), sequence (P21554 whole entry): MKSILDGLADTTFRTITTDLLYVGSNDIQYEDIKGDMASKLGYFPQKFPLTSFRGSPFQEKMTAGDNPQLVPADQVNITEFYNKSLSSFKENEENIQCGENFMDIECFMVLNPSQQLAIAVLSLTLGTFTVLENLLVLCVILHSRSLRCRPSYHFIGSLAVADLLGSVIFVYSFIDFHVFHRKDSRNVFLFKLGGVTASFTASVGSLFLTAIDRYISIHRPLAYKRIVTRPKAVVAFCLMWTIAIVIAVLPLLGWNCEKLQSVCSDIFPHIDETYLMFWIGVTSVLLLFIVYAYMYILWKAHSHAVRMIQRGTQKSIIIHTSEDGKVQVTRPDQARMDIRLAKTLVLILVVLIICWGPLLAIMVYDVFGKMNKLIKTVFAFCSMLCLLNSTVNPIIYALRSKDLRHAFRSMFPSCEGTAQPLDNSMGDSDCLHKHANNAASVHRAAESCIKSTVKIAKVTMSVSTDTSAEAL

[5] = molecular target: Bombesin receptor (Rattus norvegicus) (UniProt P52500+P24053+Q8K418); assay: Activity against BOMBESIN/NS in the Eurofins SafetyScreen44 (BI) by Radioactive Assay (Old_Cerep_9); assay type: protein assay
Bombesin receptor (Rattus norvegicus), sequence (P24053 whole entry, looked up): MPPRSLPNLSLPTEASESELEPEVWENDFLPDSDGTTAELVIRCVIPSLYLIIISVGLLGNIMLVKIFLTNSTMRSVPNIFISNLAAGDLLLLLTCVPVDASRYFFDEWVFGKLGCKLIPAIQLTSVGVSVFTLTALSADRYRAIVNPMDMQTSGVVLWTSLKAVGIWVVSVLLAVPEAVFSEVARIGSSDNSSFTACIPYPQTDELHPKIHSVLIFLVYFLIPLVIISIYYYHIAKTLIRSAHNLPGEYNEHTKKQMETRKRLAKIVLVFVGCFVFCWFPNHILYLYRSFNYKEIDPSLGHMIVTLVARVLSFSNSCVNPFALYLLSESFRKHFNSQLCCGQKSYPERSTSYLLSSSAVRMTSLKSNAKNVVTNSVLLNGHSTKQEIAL
Bombesin receptor (Rattus norvegicus), sequence (P52500 whole entry, looked up): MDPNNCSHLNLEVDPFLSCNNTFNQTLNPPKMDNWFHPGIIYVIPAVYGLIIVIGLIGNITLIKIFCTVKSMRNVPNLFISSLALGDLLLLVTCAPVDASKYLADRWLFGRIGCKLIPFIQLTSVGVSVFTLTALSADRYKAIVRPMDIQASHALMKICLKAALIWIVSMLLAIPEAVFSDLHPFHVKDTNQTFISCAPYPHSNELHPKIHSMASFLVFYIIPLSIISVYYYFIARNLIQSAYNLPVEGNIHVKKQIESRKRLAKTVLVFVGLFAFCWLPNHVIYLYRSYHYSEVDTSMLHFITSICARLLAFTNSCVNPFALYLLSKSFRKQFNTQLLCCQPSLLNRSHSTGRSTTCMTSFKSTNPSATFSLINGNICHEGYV
Bombesin receptor (Rattus norvegicus), sequence (Q8K418 whole entry, looked up): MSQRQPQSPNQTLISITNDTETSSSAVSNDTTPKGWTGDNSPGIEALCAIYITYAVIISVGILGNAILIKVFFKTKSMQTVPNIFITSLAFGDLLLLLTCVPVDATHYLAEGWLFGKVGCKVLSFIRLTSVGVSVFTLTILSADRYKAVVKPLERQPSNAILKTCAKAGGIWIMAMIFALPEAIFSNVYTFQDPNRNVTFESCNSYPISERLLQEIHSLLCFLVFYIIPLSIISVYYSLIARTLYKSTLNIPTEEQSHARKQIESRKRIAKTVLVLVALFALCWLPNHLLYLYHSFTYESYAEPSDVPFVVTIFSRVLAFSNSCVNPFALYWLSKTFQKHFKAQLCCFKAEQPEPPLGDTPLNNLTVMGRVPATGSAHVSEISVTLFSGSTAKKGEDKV

[6] = molecular target: Substance-K receptor (Homo sapiens) (UniProt P21452); assay: Activity against NK2/H in the Eurofins SafetyScreen44 (BI) by Radioactive Assay (Old_Cerep_25); details: Compound concentration 10.0 uM
[7] = molecular target: 5-hydroxytryptamine receptor 6 (Homo sapiens) (UniProt P50406); assay: Activity against 5HT6/H in the Eurofins SafetyScreen44 (BI) by Others (Old_Cerep_3); details: Compound concentration 10.0 uM
[8] = molecular target: Neuropeptide Y receptor type 2 (Homo sapiens) (UniProt P49146); assay: Y2 Eurofins-Cerep binding assay; design: ligand concentration 0.015 nM; details: Compound concentration 10.0 uM
[9] = molecular target: Elastase, neutrophil expressed (Cricetulus griseus, UniProt A0A3L7HHY4); assay: ELANE inhibitor assay (hamster)
Myeloblastin = Myeloblastin (Homo sapiens, UniProt P24158); assay: PRTN3 inhibition assay
[10] = molecular target: D(3) dopamine receptor (Homo sapiens) (UniProt P35462); assay: D3 Eurofins-Cerep binding assay; details: Compound concentration 10.0 uM
[11] = molecular target: Prostacyclin receptor (Homo sapiens) (UniProt P43119); assay: Activity against PGI2/H in the Eurofins SafetyScreen44 (BI) by Radioactive Assay (Old_Cerep_34); details: Compound concentration 10.0 uM
Rattus norvegicus = species: Rattus norvegicus; assay: Cl-channel (GABA-gated) Eurofins-Cerep binding assay; design: ligand concentration 3 nM; details: Compound concentration 10.0 uM
[12] = molecular target: Peroxisome proliferator-activated receptor gamma (Homo sapiens) (UniProt P37231); assay: Agonist activity in the Eurofins SafetyScreen44 (BI) against PPARG/H AG by Radioactive Assay (Old_Cerep_35); details: Compound concentration 10.0 uM
Peroxisome proliferator-activated receptor gamma (Homo sapiens), sequence (P37231 whole entry): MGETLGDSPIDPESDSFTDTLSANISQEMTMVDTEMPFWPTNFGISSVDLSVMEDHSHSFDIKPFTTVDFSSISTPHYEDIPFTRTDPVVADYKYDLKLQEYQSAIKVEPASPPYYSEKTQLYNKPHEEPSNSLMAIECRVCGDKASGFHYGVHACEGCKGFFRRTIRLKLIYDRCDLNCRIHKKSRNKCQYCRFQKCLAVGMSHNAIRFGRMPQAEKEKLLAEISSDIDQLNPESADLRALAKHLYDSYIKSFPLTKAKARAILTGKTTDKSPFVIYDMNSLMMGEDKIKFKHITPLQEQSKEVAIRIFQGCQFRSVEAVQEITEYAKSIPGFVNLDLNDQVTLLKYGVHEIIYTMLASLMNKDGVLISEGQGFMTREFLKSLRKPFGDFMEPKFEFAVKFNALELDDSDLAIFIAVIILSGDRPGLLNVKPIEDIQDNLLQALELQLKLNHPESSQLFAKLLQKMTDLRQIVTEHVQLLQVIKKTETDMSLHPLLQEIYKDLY

[13] = molecular target: Prostaglandin E2 receptor EP4 subtype (Homo sapiens) (UniProt P35408); assay: Agonist activity in the Eurofins SafetyScreen44 (BI) against EP4/H AG by Radioactive Assay (Old_Cerep_19); details: Compound concentration 10.0 uM
[14] = molecular target: 5-hydroxytryptamine receptor 7 (Homo sapiens) (UniProt P34969); assay: 5-HT7 Eurofins-Cerep binding assay; design: ligand concentration 4 nM; details: Compound concentration 10.0 uM
[15] = molecular target: Galanin receptor type 1 (Homo sapiens) (UniProt P47211); assay: Activity against GAL1/H in the Eurofins SafetyScreen44 (BI) by Radioactive Assay (Old_Cerep_21); details: Compound concentration 10.0 uM
[16] = molecular target: T2, GABA-A receptor; anion channel (Rattus norvegicus) (UniProt O09028+P15431+P18506+P18508+P19969+P20236+P23574+P23576+P28471+P28473+P30191+P62813+P63079+P63138+Q91ZM7+Q9ES14); assay: Inhibitor of GABA/NS/R in the Eurofins SafetyScreen44 (BI) by Radioactive Assay (Cerep_60); assay type: protein-complex assay; details: Compound concentration 10.0 uM
[17] = molecular target: Platelet-derived growth factor receptor (Mus musculus) (UniProt P05622+P26618); assay: Activity against PDGF/M in the Eurofins SafetyScreen44 (BI) (Old_Cerep_33); assay type: protein-complex assay; details: Compound concentration 10.0 uM
[18] = molecular target: T2, GABA-A receptor; anion channel (Rattus norvegicus); assay: Activity against BZD/PERIPH/R in the Eurofins SafetyScreen44 (BI) by Radioactive Assay (Old_Cerep_10); assay type: protein-complex assay
[19] = molecular target: Adrenergic receptor alpha-2 (Rattus norvegicus) (UniProt P22086+P19328+P22909); assay: Inhibitor of ALPHA2/NS/R in the Eurofins SafetyScreen44 (BI) by Radioactive Assay (Old_Cerep_6); assay type: protein assay
[20] = molecular target: Muscarinic acetylcholine receptor M4 (Homo sapiens) (UniProt P08173); assay: M4 Eurofins-Cerep binding assay; details: Compound concentration 10.0 uM
Muscarinic acetylcholine receptor M4 (Homo sapiens), sequence (P08173 whole entry): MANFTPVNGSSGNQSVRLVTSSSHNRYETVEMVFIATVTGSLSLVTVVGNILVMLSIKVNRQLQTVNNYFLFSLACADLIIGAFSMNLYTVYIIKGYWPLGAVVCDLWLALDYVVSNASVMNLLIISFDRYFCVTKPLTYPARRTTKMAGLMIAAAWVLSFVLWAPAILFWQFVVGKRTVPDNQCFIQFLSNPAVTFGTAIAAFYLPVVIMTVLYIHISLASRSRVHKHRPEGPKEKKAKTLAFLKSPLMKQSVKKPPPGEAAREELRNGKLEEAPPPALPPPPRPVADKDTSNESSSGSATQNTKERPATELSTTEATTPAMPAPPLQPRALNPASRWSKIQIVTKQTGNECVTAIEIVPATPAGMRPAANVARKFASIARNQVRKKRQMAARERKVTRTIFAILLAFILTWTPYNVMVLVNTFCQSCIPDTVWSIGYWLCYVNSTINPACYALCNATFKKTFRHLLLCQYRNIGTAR

[21] = molecular target: C-C chemokine receptor type 1 (Homo sapiens) (UniProt P32246); assay: Activity against CCR1/H in the Eurofins SafetyScreen44 (BI) (Old_Cerep_14); details: Compound concentration 10.0 uM
[22] = molecular target: Adrenergic receptor alpha-1 (Rattus norvegicus) (UniProt P15823+P23944+P43140); assay: Inhibitor of ALPHA1/NS/R in the Eurofins SafetyScreen44 (BI) by Radioactive Assay (Old_Cerep_5); assay type: protein assay
[23] = molecular target: cGMP-inhibited 3',5'-cyclic phosphodiesterase 3A (Homo sapiens) (UniProt Q14432); assay: Inhibitor of PDE3A in the Eurofins Cerep SafetyScreen44 (BI) by HTRF-homogeneous time resolved fluoresce (Cerep_4072); details: Compound concentration 10.0 uM
[24] = molecular target: Angiotensin-converting enzyme (Homo sapiens) (UniProt P12821); assay: Activity against ACE(HU_AMTCH400) in the Eurofins Cerep SafetyScreen44 (BI) by Photometry (Cerep_3441); details: Compound concentration 10.0 uM
[25] = molecular target: L-type calcium channel (Cav1.2, alpha-1C), dihydropyridine site (Rattus norvegicus, UniProt P22002); assay: Inhibitor of CA+/DHPSI/R in the Eurofins Cerep SafetyScreen44 (BI) by Radioactive Assay (Cerep_161); assay type: protein assay; design: scale not given: the % may be the effect or the level left; details: rat brain, probe [3H](+)PN200-110, compound concentration 10 uM, read-out: % Ctrl
L-type calcium channel (Cav1.2, alpha-1C), dihydropyridine site, sequence (P22002 whole entry): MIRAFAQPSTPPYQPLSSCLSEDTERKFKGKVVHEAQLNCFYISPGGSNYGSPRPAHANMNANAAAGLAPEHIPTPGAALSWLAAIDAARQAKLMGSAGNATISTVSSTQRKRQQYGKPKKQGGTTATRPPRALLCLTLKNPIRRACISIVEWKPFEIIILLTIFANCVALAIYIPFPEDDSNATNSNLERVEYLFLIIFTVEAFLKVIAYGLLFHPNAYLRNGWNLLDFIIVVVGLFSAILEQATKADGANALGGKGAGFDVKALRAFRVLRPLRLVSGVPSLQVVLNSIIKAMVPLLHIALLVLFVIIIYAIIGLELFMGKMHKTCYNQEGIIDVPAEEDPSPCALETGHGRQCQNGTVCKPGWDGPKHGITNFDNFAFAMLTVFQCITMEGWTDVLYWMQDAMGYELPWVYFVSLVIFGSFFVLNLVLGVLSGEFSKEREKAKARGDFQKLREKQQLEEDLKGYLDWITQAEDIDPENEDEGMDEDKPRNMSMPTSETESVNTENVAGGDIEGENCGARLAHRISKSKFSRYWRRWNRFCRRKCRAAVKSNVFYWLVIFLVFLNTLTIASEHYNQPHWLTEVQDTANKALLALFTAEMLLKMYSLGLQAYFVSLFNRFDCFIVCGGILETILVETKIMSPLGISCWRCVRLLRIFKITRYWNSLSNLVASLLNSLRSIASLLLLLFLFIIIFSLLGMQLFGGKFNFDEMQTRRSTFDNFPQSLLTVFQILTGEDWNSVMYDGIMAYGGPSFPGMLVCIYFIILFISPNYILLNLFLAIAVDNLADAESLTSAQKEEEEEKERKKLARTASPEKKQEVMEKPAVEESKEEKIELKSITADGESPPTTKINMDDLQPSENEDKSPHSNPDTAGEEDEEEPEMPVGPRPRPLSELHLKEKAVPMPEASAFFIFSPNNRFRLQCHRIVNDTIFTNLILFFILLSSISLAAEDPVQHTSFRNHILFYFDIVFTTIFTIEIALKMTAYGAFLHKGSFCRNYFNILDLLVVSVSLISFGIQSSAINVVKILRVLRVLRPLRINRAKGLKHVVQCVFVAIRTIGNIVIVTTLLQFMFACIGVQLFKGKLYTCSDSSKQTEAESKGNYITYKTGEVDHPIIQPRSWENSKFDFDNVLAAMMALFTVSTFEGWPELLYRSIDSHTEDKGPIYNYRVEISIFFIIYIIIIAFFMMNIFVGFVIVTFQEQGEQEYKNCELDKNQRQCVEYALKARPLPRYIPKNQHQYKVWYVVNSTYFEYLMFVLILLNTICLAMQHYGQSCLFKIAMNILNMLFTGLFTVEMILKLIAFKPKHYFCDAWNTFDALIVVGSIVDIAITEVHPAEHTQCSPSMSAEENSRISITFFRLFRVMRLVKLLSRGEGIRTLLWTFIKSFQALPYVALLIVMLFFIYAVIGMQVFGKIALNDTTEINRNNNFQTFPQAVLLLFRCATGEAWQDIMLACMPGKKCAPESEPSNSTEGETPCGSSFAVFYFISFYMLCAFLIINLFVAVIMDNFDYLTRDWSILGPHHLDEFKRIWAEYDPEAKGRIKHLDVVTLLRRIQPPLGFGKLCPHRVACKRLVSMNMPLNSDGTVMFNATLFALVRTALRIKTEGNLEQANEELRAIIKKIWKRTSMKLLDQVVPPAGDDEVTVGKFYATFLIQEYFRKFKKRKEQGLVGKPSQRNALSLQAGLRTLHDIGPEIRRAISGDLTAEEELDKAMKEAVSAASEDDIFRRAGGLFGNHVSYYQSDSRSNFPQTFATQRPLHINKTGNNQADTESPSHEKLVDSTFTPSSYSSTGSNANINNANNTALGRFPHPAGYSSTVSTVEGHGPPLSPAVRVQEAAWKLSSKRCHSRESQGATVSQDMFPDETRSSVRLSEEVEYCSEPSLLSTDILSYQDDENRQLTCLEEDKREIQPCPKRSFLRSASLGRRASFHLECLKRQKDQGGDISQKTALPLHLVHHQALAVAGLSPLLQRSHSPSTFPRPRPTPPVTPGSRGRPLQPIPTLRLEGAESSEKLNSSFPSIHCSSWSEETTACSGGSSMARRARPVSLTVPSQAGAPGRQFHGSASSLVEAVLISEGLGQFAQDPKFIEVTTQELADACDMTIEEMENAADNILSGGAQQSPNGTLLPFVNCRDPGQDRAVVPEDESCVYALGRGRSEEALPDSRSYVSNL

[26] = molecular target: Cannabinoid receptor 1 (Homo sapiens) (UniProt P21554); assay: CB1 Eurofins-Cerep binding assay; details: Compound concentration 10.0 uM
[27] = molecular target: T1, Glutamate NMDA receptor (Rattus norvegicus); assay: Inhibitor of NMDA/R in the Eurofins Cerep SafetyScreen44 (BI) by Radioactive Assay (Cerep_66); assay type: protein-complex assay; details: Compound concentration 10.0 uM
[28] = molecular target: Prostaglandin G/H synthase 2 (Homo sapiens) (UniProt P35354); assay: Inhibitor of COX-2 in the Eurofins Cerep SafetyScreen44 (BI) by Fluorimetry (Cerep_4186); details: Compound concentration 10.0 uM
[29] = molecular target: 5-hydroxytryptamine receptor 1B (Homo sapiens) (UniProt P28222); assay: 5-HT1B Eurofins-Cerep binding assay; design: ligand concentration 1 nM; details: Compound concentration 10.0 uM

CC(C)(O)CNC(=O)N1C(=O)N(c2cccc(C(F)(F)F)c2)C2=C(C(=O)CC2)[C@H]1c1ccc(C#N)cc1
residual activity [1]: 92%
residual activity [2]: 104%
residual activity [3]: 114%
residual activity ([4]; Compound concentration 10.0 uM): 87%
residual activity ([4]; Compound concentration 30.0 uM): 93%
residual activity ([5]; Compound concentration 10.0 uM): 129%
residual activity ([5]; Compound concentration 30.0 uM): 118%
residual activity [6]: 103%
residual activity [7]: 93%
residual activity [8]: 113%
IC50 [9]: 4 nM (active)
IC50 (Myeloblastin): 367 nM (not active)
residual activity [10]: 96%
residual activity [11]: 123%
residual activity (Rattus norvegicus): 90%
residual activity [12]: 111%
residual activity [13]: 77%
residual activity [14]: 102%
residual activity [15]: 121%
residual activity [16]: 103%
residual activity [17]: 103%
residual activity ([18]; Compound concentration 10.0 uM): 100%
residual activity ([18]; Compound concentration 30.0 uM): 93%
residual activity ([19]; Compound concentration 10.0 uM): 93%
residual activity ([19]; Compound concentration 30.0 uM): 98%
residual activity [20]: 95%
residual activity [21]: 89%
residual activity ([22]; Compound concentration 10.0 uM): 97%
residual activity ([22]; Compound concentration 30.0 uM): 103%

CC(C)(O)CNC(=O)N1C(=O)N(c2cccc(C(F)(F)F)c2)C2=C(C(=O)CC2)[C@@H]1c1ccc(C#N)cc1
residual activity [23]: 97%
residual activity [24]: 98%
activity at 10 µM [25]: 104% (not active)
residual activity [26]: 88%
residual activity [27]: 96%
residual activity [28]: 101%
residual activity [29]: 86%
